Assay results published in EP0293500A1, “3-heteroalkyl-2,4.quinzaoline-diones” (AMERICAN CYANAMID COMPANY, priority 1987, dated 1988).

How the values were obtained:
[1] = system: spontaneously hypertensive rats of the Okamoto strain; assay: Hypotensive activity in spontaneously hypertensive rats (method of Chan and Poorvin); assay type: in vivo; conditions: male SHR, average MABP 160±1.5 mm of mercury; gavage, 100 mg/kg or less, second identical dose 24 hours later; MABP at 28 hours after the initial dose; number of rats in brackets
Method: The novel compounds of the present invention are also active hypotensive agents and were tested for hypotensive activity by the method of P. S. Chan and b. Poorvin, Clinical and Experimental Hypertension, 1 (6), 817-830 (1979). Male, 16 week old, spontaneously hypertensive rats of the Okamoto strain, from Taconic Farms, Germantown, New York having an average mean arterial blood pressure of 160±1.5 mm of mercury were used in the test. […] A second identical dose of the test compound, without sodium chloride loading is given 24 hours later. At 28 hours after the initial dose, the mean arterial blood pressure (MABP) is measured by the method of Chan and Poorvin vide supra. The procedure is repeated in a second and third rat when necessary. The results of this test on representative compounds of the present invention appear in Table II below.

thromboxane synthetase = molecular target: T1, thromboxane synthetase (Rattus norvegicus, UniProt P49430); assay: Inhibition of thromboxane (TX) formation (TXB2 radioimmunoassay) in washed rat platelets; assay type: cell-based, Okamoto-Aoki spontaneously hypertensive rats (SHR); conditions: percent inhibition of TXB2 formation; drug at 10^-4M; SHR platelet suspension, 10 minutes at 37 C
T1 construct: The platelets were isolated by centrifuging the PRP for 10 minutes at 1060xg; from tissue; host or cells: washed blood platelets from Okamoto-Aoki spontaneously hypertensive rats (SHR)
T1 sequence (P49430 1-533): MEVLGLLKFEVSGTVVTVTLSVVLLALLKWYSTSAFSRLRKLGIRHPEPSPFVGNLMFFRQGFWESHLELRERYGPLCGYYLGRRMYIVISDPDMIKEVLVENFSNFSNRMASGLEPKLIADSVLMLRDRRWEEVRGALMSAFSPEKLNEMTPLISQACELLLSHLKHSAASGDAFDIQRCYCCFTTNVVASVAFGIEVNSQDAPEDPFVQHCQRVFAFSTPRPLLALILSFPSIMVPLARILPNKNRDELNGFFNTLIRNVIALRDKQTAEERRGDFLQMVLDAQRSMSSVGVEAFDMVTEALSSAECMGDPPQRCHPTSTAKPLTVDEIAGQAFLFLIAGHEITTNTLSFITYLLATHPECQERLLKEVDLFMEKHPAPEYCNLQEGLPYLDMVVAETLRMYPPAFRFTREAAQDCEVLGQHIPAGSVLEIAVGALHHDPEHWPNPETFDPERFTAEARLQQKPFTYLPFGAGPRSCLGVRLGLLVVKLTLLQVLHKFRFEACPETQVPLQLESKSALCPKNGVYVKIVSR
Source text: The platelet rich plasma (PRP) was separated. […] The inhibition of thromboxane (TX) formation was studied by determing the concentration of thromboxane […] (TXB2), the stable hydrolysis product of TXA2.

CC(CCn1cnc2ccccc2c1=O)n1ccnc1.O=C(O)/C=C/C(=O)O (centres unmarked) [3-[3-(1H-Imidazol-1-yl)butyl]-4(3H)-quinazolinone, fumarate salt]
MABP/mm Hg (no. of rats) [1]: 119(2) mm Hg

O=c1c2ccccc2nnn1CCCn1ccnc1 [3-[3-(1H-Imidazol-1-yl)propyl]-1,2,3-benzotriazin-4(3H)-one]
inhibition at 100 µM (thromboxane synthetase): 97%
MABP/mm Hg (no. of rats) [1]: 111(2) mm Hg

O=c1c2cc(Cl)ccc2nnn1CCCCCCCCn1ccnc1 [6-Chloro-3-[8-(1H-imidazol-1-yl)octyl]-1,2,3-benzotriazin-4(3H)-one, monohydro-chloride]
inhibition at 100 µM (thromboxane synthetase): 90%
MABP/mm Hg (no. of rats) [1]: 116(2) mm Hg

O=c1[nH]c2ccccc2c(=O)n1CCCn1ccnc1 [Example 10, 3-[3-(1 H-Imidazol-1-yl)propyl]-2,4-(1H,3H)-quinazolinedione]
inhibition at 100 µM (thromboxane synthetase): 76%
MABP/mm Hg (no. of rats) [1]: 131(3) mm Hg

O=c1[nH]c2ccccc2c(=O)n1CCCCn1ccnc1 [Example 11, 3-[4-(1H-Imidazol-1-yl)butyl]-2,4(1H,3H)-quinazolinedione]
inhibition at 100 µM (thromboxane synthetase): 100%
MABP/mm Hg (no. of rats) [1]: 108(2) mm Hg

O=c1[nH]c2ccc(Br)cc2c(=O)n1CCCCn1ccnc1 [Example 12, 6-Bromo-3-[4-(1H-imidazol-1-yl)butyl]-2,4(1H,3H)-quinazolinedione]
inhibition at 100 µM (thromboxane synthetase): 98%
MABP/mm Hg (no. of rats) [1]: 107(2) mm Hg

Cc1ccc2[nH]c(=O)n(CCC(C)n3ccnc3)c(=O)c2c1 (centres unmarked) [Example 17, 3-[3-(1H-Imidazol-1-yl)butyl]-6-methyl-2,4(1H,3H)-quinazolinedione]
inhibition at 100 µM (thromboxane synthetase): 88%
MABP/mm Hg (no. of rats) [1]: 111(2) mm Hg

O=c1[nH]c2ccccc2c(=O)n1CCCCCn1ccnc1 [Example 18, 3-[5-(1 H-Imidazol-1-yl)pentyl]-2,4(1H,3H)-quinazolinedione]
inhibition at 100 µM (thromboxane synthetase): 98%
MABP/mm Hg (no. of rats) [1]: 104(2) mm Hg

Cc1cn(CCCn2c(=O)[nH]c3ccccc3c2=O)cn1 [Example 19, 3-[3-(4-Methyl-1H-imidazol-1-yl)propyl]-2,4(1H,3H)-quinazolinedione]
inhibition at 100 µM (thromboxane synthetase): 98%
MABP/mm Hg (no. of rats) [1]: 135(3) mm Hg

CC(CCn1c(=O)[nH]c2ccccc2c1=O)n1ccnc1 (centres unmarked) [Example 20, 3-[3-(1H-Imidazol-1-yl)butyl]-2,4(1H,3H)-quinazolinedione]
inhibition at 100 µM (thromboxane synthetase): 100%
MABP/mm Hg (no. of rats) [1]: 121(3) mm Hg

CC(Cn1ccnc1)Cn1c(=O)[nH]c2ccccc2c1=O (centres unmarked) [Example 21, 3-[3-(1H-Imidazol-1-yl)-2-methylpropyl]-2,4(1H,3H)-quinazolinedione]
inhibition at 100 µM (thromboxane synthetase): 100%
MABP/mm Hg (no. of rats) [1]: 112(2) mm Hg

O=c1[nH]c2ccc(Cl)cc2c(=O)n1CCCCn1ccnc1 [Example 24, 6-Chloro-3-[4-(1H-imidazol-1-yl)butyl]-2,4(1H,3H)-quinazolinedione]
inhibition at 100 µM (thromboxane synthetase): 93%
MABP/mm Hg (no. of rats) [1]: 106(2) mm Hg

Cc1cn(CCCn2c(=O)[nH]c3ccc(Cl)cc3c2=O)cn1 [Example 26, 6-Chloro-3-[3-(4-methyl-1H-imidazol-1-yl)-propyl]-2,4(1H,3H)-quinazolinedione]
inhibition at 100 µM (thromboxane synthetase): 99%
MABP/mm Hg (no. of rats) [1]: 125(3) mm Hg

Cc1cn(CCCCn2c(=O)[nH]c3ccc(Cl)cc3c2=O)cn1 [Example 28, 6-Chloro-3-[4-(4-methyl-1H-imidazol-1-yl)butyl]-2,4(1H,3H)-quinazolinedione]
inhibition at 100 µM (thromboxane synthetase): 70%
MABP/mm Hg (no. of rats) [1]: 118(2) mm Hg

CC(CCn1c(=O)[nH]c2ccc(Cl)cc2c1=O)n1ccnc1 (centres unmarked) [Example 30, 6-Chloro-3-[3-(1H-imidazol-1-yl)-butyl]-2,4(1H,3H)-quinazolinedione]
inhibition at 100 µM (thromboxane synthetase): 98%
MABP/mm Hg (no. of rats) [1]: 113(2) mm Hg

CC(Cn1ccnc1)Cn1c(=O)[nH]c2ccc(Cl)cc2c1=O (centres unmarked) [Example 31, 6-Chloro-3-[3-(1H-imidazol-1-yl)-2-methylpropyl]-2,4(1H,3H)-quinazolinedione]
inhibition at 100 µM (thromboxane synthetase): 100%
MABP/mm Hg (no. of rats) [1]: 126(3) mm Hg

O=c1[nH]c2cc(Cl)ccc2c(=O)n1CCCCn1ccnc1 [Example 40, 7-Chloro-3-[4-(1H-imidazol-1-yl)butyl]-2,4(1H,3H)-quinazolinedione]
inhibition at 100 µM (thromboxane synthetase): 59%
MABP/mm Hg (no. of rats) [1]: 102(2) mm Hg

CC(CCn1c(=O)[nH]c2cc(Cl)ccc2c1=O)n1ccnc1 (centres unmarked) [Example 41, 7-Chloro-3-[3-(1H-imidazol-1-yl)butyl]-2,4(1H,3H)-quinazolinedione]
inhibition at 100 µM (thromboxane synthetase): 51%
MABP/mm Hg (no. of rats) [1]: 128(2) mm Hg

CC(Cn1ccnc1)Cn1c(=O)[nH]c2cc(Cl)ccc2c1=O (centres unmarked) [Example 42, 7-Chloro-3-[3-(1H-imidazol-1-yl)-2-methylpropy]-2,4(1H,3H)-quinazolinedione]
inhibition at 100 µM (thromboxane synthetase): 75%
MABP/mm Hg (no. of rats) [1]: 121(2) mm Hg

O=c1[nH]c2c(Cl)cccc2c(=O)n1CCCCn1ccnc1 [Example 43, 8-Chloro-3-[4-(1H-imidazol-1-yl)butyl]-2,4(1H,3H)-quinazolinedione]
inhibition at 100 µM (thromboxane synthetase): 62%
MABP/mm Hg (no. of rats) [1]: 85(2) mm Hg

CC(CCn1c(=O)[nH]c2c(Cl)cccc2c1=O)n1ccnc1 (centres unmarked) [Example 44, 8-Chloro-3-[3-(1H-imidazol-1-yl)butyl]-2,4(1H,3H)-quinazolinedione]
inhibition at 100 µM (thromboxane synthetase): 71%
MABP/mm Hg (no. of rats) [1]: 112(2) mm Hg

Cc1ccc2c(=O)n(CCCCn3ccnc3)c(=O)[nH]c2c1C [Example 50, 7,8-Dimethyl-3-[4-(1H-imidazol-1-yl)-butyl]-2,4(1H,3H)-quinazolinedione]
MABP/mm Hg (no. of rats) [1]: 104(2) mm Hg

O=c1c2ccccc2nnn1CCCCn1ccnc1 [Example 75, 3-[4-(1 H-Imidazol-1-yl)butyl]-1,2,3-benzotriazin-4(3H)-one]
inhibition at 100 µM (thromboxane synthetase): 68%
MABP/mm Hg (no. of rats) [1]: 114(2) mm Hg

O=c1c2cc(Cl)ccc2nnn1CCCn1ccnc1 [Example 76, 6-Chloro-3-[3-(1H-imidazol-1-yl)-propyl]-1,2,3-benzotriazin-4(3H)-one]
inhibition at 100 µM (thromboxane synthetase): 74%
MABP/mm Hg (no. of rats) [1]: 127(3) mm Hg

Cl.O=c1c2cc(Br)ccc2nnn1CCCCn1ccnc1 [Example 82, 6-Bromo-3-[4-(1H-imidazol-1-yl)-butyl]-1,2,3-benzotriazin-4(3H)-one, monohydrochloride]
inhibition at 100 µM (thromboxane synthetase): 96%
MABP/mm Hg (no. of rats) [1]: 115(2) mm Hg

Cc1ccc2nnn(CCCCn3ccnc3)c(=O)c2c1 [Example 84, 3-[4-(1H-Imidazol-1-yl)butyl]-6-methyl-1,2,3-benzotriazin-4(3H)-one]
inhibition at 100 µM (thromboxane synthetase): 95%
MABP/mm Hg (no. of rats) [1]: 106(2) mm Hg

Cc1ccc2c(=O)n(CCCCn3ccnc3)nnc2c1C.Cl [Example 86, 3-[4-(1H-Imidazol-1-yl)butyl]-7,8-dimethyl-1,2,3-benzotriazin-4(3H)-one, monohydrochloride]
inhibition at 100 µM (thromboxane synthetase): 93%
MABP/mm Hg (no. of rats) [1]: 121(2) mm Hg

O=c1c2cc(Cl)ccc2nnn1CCCCn1ccnc1 [Example 88, 6-Chloro-3-[4-(1H-imidazol-1-yl)-butyl]-1,2,3-benzotriazin-4(3H)-one]
MABP/mm Hg (no. of rats) [1]: 105(2) mm Hg

Cl.Cl.O=c1c2ccccc2ncn1CCCCCn1ccnc1 [Example 137, 3-[5-(1H-Imidazol-1-yl)pentyl]-4(3H)-quinazolinone, dihydrochloride]
MABP/mm Hg (no. of rats) [1]: 110(2) mm Hg

O=c1c2ccc(Cl)cc2ncn1CCCCn1ccnc1 [Example 149, 7-Chloro-3-(4-(1H-imidazol-1-yl)butyl]-4(3H)-quinazolinone]
MABP/mm Hg (no. of rats) [1]: 126(2) mm Hg

CCc1nc2ccc(Cl)cc2c(=O)n1CCCn1ccnc1 [Example 158, 6-Chloro-2-ethyl-3-[3-(1H-imidazol-1-yl)propyl]-4(3H)-quinazolinone]
MABP/mm Hg (no. of rats) [1]: 120(4) mm Hg
